Tests used:
Experiment in all cases: whole plant or invertebrate
Type in all cases: in vivo
[1] = test system: silverleaf whitefly (Bemisia argentifolii Bellows and Perring); settings: Table 2B
Procedure, shortened: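 Whitefly-egg-infested 12–14-day-old cotton plants sprayed with compound in 10% acetone/90% water plus 300 ppm non-ionic surfactant, in triplicate. Plants then held 13 days at 28 °C and 50–70% relative humidity before mortality assessment.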

[2] = test system: western flower thrip (Frankliniella occidentalis Pergande); settings: single compound, spray, 7 days
Procedure, shortened: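 Bean plants aged 5–7 days received a spray of test solution (10% acetone, 90% water, 300 ppm surfactant), in triplicate. Adult thrips (22–27 per unit) were introduced once the plants had dried for 1 h. Incubation lasted 7 days at 25° C and 45–55% RH.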

[3] = test system: potato leafhopper (Empoasca fabae Harris); settings: alone
Procedure, shortened: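 Contact and/or systemic test: five adult leafhoppers aged 18–21 days were released onto Longio bean plants 1 h after spraying. The spray was 1 mL per unit in acetone/water (10:90) with 300 ppm non-ionic surfactant, run in triplicate. Plants were kept 6 days in a growth chamber at 19–21 °C and 50–70% humidity.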

[4] = test system: corn planthopper (Peregrines maidis); settings: Corn Plant Hopper
Procedure, shortened: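 Contact/systemic test on corn planthopper: 10–20 nymphs (18- to 20-day-old) released onto young maize plants 1 h after spraying, with three replicate units per treatment. Spray solution was acetone/water 10:90 containing 300 ppm non-ionic spreader; units kept 6 days at 19-21° C., 50-70% RH.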

[5] = test system: cotton melon aphid (Aphis gossypii Glover)
Procedure, shortened: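 Sprays in acetone–water with 300 ppm non-ionic surfactant, at ppm concentrations, applied to aphid-infested (30–40 per plant) 6–7-day cotton, in triplicate. Evaluation after 6 days in a growth chamber at 19–21 °C and 50–70% relative humidity, covering contact and/or systemic action.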

[6] = test system: green peach aphid (Myzus persicae Sulzer); settings: Green Peach Aphid
Procedure, shortened: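 Compounds formulated in 10% acetone/water with 300 ppm X-77 surfactant were atomized onto aphid-infested radish seedlings, with three replicates per treatment. Infestation was 30–40 aphids transferred on excised leaf pieces, covering contact and systemic exposure. Test units stayed 6 days in a growth chamber at 19–21 °C and 50–70% relative humidity.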

[7] = test system: diamondback moth (Plutella xylostella)
Procedure: The test compounds were dissolved in water. […] Serial dilutions were made to obtain the appropriate concentrations. To obtain the desired mixture concentrations of each compound, twice the desired concentration of each of the two mixture partner compounds were mixed together in equal volumes.
The diluted solutions of the test compounds were sprayed to run-off on three-week-old tomato plants. The plants were placed on a rotating turntable sprayer (10 rpm). Test solutions were applied using a flat fan air-assisted nozzle (Spraying Systems 122440) at 10 psi (69 kPa). […] The leaves were cut into pieces, which were placed singly into 5.5 cm-by-3.5 cm cells of a sixteen-cell plastic tray. Each cell contained a 2.5-cm square of moistened chromatography paper to prevent desiccation. One insect was placed in each cell. There two trays per treatment. Trays were held in the growth chamber at 25° C., 16-hour light:8-hour dark, 60% relative humidity for 4 days.
For evaluating control of diamondback moth (Plutella xylostella), cabbage (var. Stonehead) plants were grown in Metromix potting soil in 10-cm pots in aluminum trays to test size (28 days, 3-4 full leaves) the plants were sprayed to the point of runoff using the turntable sprayer as described in Test I. Test compounds were formulated and sprayed on test plants as described for Test I. After drying for 2 hours, the treated leaves were excised and infested with one cabbage looper per cell and covered. The test units were placed on trays and put in a growth chamber at 25° C. and 60% relative humidity for 4 days.

Compound: Cc1ccc(/N=C/N(C)/C=N/c2ccc(C)cc2C)c(C)c1 [Amitraz]
- mortality at 500 ppm ([1]; Bemisia argentifolii, in Gossypium hirsutum, rate 500 ppm, read-out: % mortality (obs)): 5%
- mortality at 1000 ppm ([1]; Bemisia argentifolii, in Gossypium hirsutum, rate 1000 ppm, read-out: % mortality (obs)): 0%
- mortality at 2000 ppm ([1]; Bemisia argentifolii, in Gossypium hirsutum, rate 2000 ppm, read-out: % mortality (obs)): 0%
- mortality at 10 ppm ([2]; Frankliniella occidentalis, 168 h, rate 10 ppm, read-out: % mortality (obs)): 40%
- mortality at 100 ppm ([2]; Frankliniella occidentalis, 168 h, rate 100 ppm, read-out: % mortality (obs)): 30%
- mortality at 1000 ppm ([2]; Frankliniella occidentalis, 168 h, rate 1000 ppm, read-out: % mortality (obs)): 20%
- mortality at 10 ppm ([3]; Empoasca fabae, rate 10 ppm, read-out: % mortality (obs)): 0%
- mortality at 100 ppm ([3]; Empoasca fabae, rate 100 ppm, read-out: % mortality (obs)): 7%
- mortality at 1000 ppm ([3]; Empoasca fabae, rate 1000 ppm, read-out: % mortality (obs)): 13%
- mortality at 5 ppm ([4]; rate 5 ppm, read-out: % mortality (obs)): 6%
- mortality at 10 ppm ([4]; rate 10 ppm, read-out: % mortality (obs)): 3%
- mortality at 50 ppm ([4]; rate 50 ppm, read-out: % mortality (obs)): 5%
- mortality at 10 ppm ([5]; Aphis gossypii, rate 10 ppm, read-out: % mortality (obs)): 20%
- mortality at 100 ppm ([5]; Aphis gossypii, rate 100 ppm, read-out: % mortality (obs)): 35%
- mortality at 1000 ppm ([5]; Aphis gossypii, rate 1000 ppm, read-out: % mortality (obs)): 29%
- mortality at 10 ppm ([6]; Myzus persicae, in Raphanus sativus, rate 10 ppm, read-out: % mortality (obs)): 16%
- mortality at 100 ppm ([6]; Myzus persicae, in Raphanus sativus, rate 100 ppm, read-out: % mortality (obs)): 12%
- mortality at 1000 ppm ([6]; Myzus persicae, in Raphanus sativus, rate 1000 ppm, read-out: % mortality (obs)): 34%
- mortality at 10 ppm ([7]; Plutella xylostella, in Brassica oleracea, rate 10 ppm, read-out: % mortality (obs)): 70%
- mortality at 100 ppm ([7]; Plutella xylostella, in Brassica oleracea, rate 100 ppm, read-out: % mortality (obs)): 20%
- mortality at 1000 ppm ([7]; Plutella xylostella, in Brassica oleracea, rate 1000 ppm, read-out: % mortality (obs)): 50%

Compound: N#CCNC(=O)c1cnccc1C(F)(F)F [Flonicamid]
- % mortality (obs) ([1]; rate 0.1 ppm): 2%
- % mortality (obs) ([1]; rate 0.2 ppm): 2%
- % mortality (obs) ([1]; rate 0.5 ppm): 2%
- % mortality (obs) ([2]; rate 10 ppm): 20%
- % mortality (obs) ([2]; rate 100 ppm): 80%
- % mortality (obs) ([2]; rate 1000 ppm): 70%
- % mortality (obs) ([3]; rate 100 ppm): 100%
- % mortality (obs) ([3]; rate 400 ppm): 100%
- % mortality (obs) ([3]; rate 1000 ppm): 40%
- % mortality (obs) ([4]; rate 2 ppm): 52%
- % mortality (obs) ([4]; rate 15 ppm): 42%
- % mortality (obs) ([4]; rate 150 ppm): 90%
- % mortality (obs) ([5]; rate 0.2 ppm): 9%
- % mortality (obs) ([5]; rate 1 ppm): 46%
- % mortality (obs) ([5]; rate 5 ppm): 92%
- % mortality (obs) ([6]; rate 0.1 ppm): 16%
- % mortality (obs) ([6]; rate 0.2 ppm): 10%
- % mortality (obs) ([6]; rate 2 ppm): 33%
- % mortality (obs) ([7]; rate 1 ppm): 0%
- % mortality (obs) ([7]; rate 15 ppm): 60%
- % mortality (obs) ([7]; rate 1000 ppm): 30%

Compound: Pymetrozine
- % mortality (obs) ([1]; rate 10 ppm): 3%
- % mortality (obs) ([1]; rate 100 ppm): 7%
- % mortality (obs) ([1]; rate 1000 ppm): 52%
- % mortality (obs) ([2]; rate 10 ppm): 100%
- % mortality (obs) ([2]; rate 100 ppm): 100%
- % mortality (obs) ([2]; rate 1000 ppm): 100%
- % mortality (obs) ([3]; rate 2 ppm): 0%
- % mortality (obs) ([3]; rate 15 ppm): 13%
- % mortality (obs) ([3]; rate 200 ppm): 60%
- % mortality (obs) ([4]; rate 2 ppm): 51%
- % mortality (obs) ([4]; rate 10 ppm): 29%
- % mortality (obs) ([4]; rate 30 ppm): 89%
- % mortality (obs) ([5]; rate 0.1 ppm): 22%
- % mortality (obs) ([5]; rate 0.5 ppm): 38%
- % mortality (obs) ([5]; rate 2 ppm): 62%
- % mortality (obs) ([6]; rate 0.1 ppm): 13%
- % mortality (obs) ([6]; rate 0.5 ppm): 41%
- % mortality (obs) ([6]; rate 2 ppm): 79%

Compound: Pyridalyl
- % mortality (obs) ([1]; rate 10 ppm): 0%
- % mortality (obs) ([1]; rate 25 ppm): 0%
- % mortality (obs) ([1]; rate 100 ppm): 0%
- % mortality (obs) ([2]; rate 5 ppm): 30%
- % mortality (obs) ([2]; rate 50 ppm): 60%
- % mortality (obs) ([2]; rate 500 ppm): 100%
- % mortality (obs) ([3]; rate 0.5 ppm): 13%
- % mortality (obs) ([3]; rate 5 ppm): 13%
- % mortality (obs) ([3]; rate 50 ppm): 7%
- % mortality (obs) ([4]; rate 10 ppm): 2%
- % mortality (obs) ([4]; rate 100 ppm): 6%
- % mortality (obs) ([4]; rate 1000 ppm): 11%
- % mortality (obs) ([5]; rate 1 ppm): 22%
- % mortality (obs) ([5]; rate 1.5 ppm): 34%
- % mortality (obs) ([5]; rate 2 ppm): 32%
- % mortality (obs) ([6]; rate 1 ppm): 18%
- % mortality (obs) ([6]; rate 10 ppm): 8%
- % mortality (obs) ([6]; rate 20 ppm): 3%

Compound: Pyriproxyfen
- % mortality (obs) ([1]; rate 10 ppm): 100%
- % mortality (obs) ([1]; rate 15 ppm): 100%
- % mortality (obs) ([1]; rate 20 ppm): 100%
- % mortality (obs) ([2]; rate 10 ppm): 100%
- % mortality (obs) ([2]; rate 100 ppm): 100%
- % mortality (obs) ([2]; rate 1000 ppm): 100%
- % mortality (obs) ([3]; rate 10 ppm): 13%
- % mortality (obs) ([3]; rate 100 ppm): 0%
- % mortality (obs) ([3]; rate 1000 ppm): 7%
- % mortality (obs) ([4]; rate 10 ppm): 0%
- % mortality (obs) ([4]; rate 100 ppm): 8%
- % mortality (obs) ([4]; rate 1000 ppm): 12%
- % mortality (obs) ([5]; rate 10 ppm): 14%
- % mortality (obs) ([5]; rate 100 ppm): 28%
- % mortality (obs) ([5]; rate 1000 ppm): 33%
- % mortality (obs) ([6]; rate 10 ppm): 23%
- % mortality (obs) ([6]; rate 100 ppm): 12%
- % mortality (obs) ([6]; rate 1000 ppm): 26%

Compound: Thiacloprid
- % mortality (obs) ([1]; rate 15 ppm): 40%
- % mortality (obs) ([1]; rate 25 ppm): 83%
- % mortality (obs) ([1]; rate 35 ppm): 61%
- % mortality (obs) ([2]; rate 1 ppm): 20%
- % mortality (obs) ([2]; rate 100 ppm): 30%
- % mortality (obs) ([2]; rate 3000 ppm): 40%
- % mortality (obs) ([3]; rate 0.2 ppm): 73%
- % mortality (obs) ([3]; rate 0.5 ppm): 93%
- % mortality (obs) ([3]; rate 1.5 ppm): 80%
- % mortality (obs) ([4]; rate 0.3 ppm): 6%
- % mortality (obs) ([4]; rate 3 ppm): 100%
- % mortality (obs) ([4]; rate 30 ppm): 100%
- % mortality (obs) ([5]; rate 0.3 ppm): 50%
- % mortality (obs) ([5]; rate 1.5 ppm): 100%
- % mortality (obs) ([5]; rate 6 ppm): 100%
- % mortality (obs) ([6]; rate 0.2 ppm): 13%
- % mortality (obs) ([6]; rate 0.3 ppm): 68%
- % mortality (obs) ([6]; rate 0.4 ppm): 42%
